From patent publication US10551313B1, “Surface plasmon resonance based mechanical sensing of beating heart cells” (The Florida International University Board of Trustees, priority 2019, dated 2020)

Test system: living cardiomyocytes
Test: SPR based sensing of beating (cardiac activity) of cardiomyocytes cultured on the SPR sensing surface
Assay type: cell-based, rat
Details: injection of 10 μM, SPR resonance angle shift vs time, compared with control group without injection (FIG. 5)
From the text: In one particular embodiment, rat cardiomyocytes were isolated from neonatal rat hearts from day one through day three and cultured on the SPR sensing surface 100 of the SPR based sensing system. Subsequently, the spontaneous contractions, expansions, or movements of the rat cardiomyocytes under normal living conditions were monitored by using the SPR based sensing system. In an embodiment, the SPR based sensing system can sense the beating characteristics of the living cardiomyocytes after the living cardiomyocytes is stimulated by an injection of a stimulator such as, for example, adenosine triphosphate (ATP). In another embodiment, the SPR based sensing system can sense the beating characteristics of the living cardiomyocytes after the living cardiomyocytes is inhibited by an injection of an inhibitor such as, for example, blebbistatin.

SMILES | cardiac activity (beating frequency) of the cardiomyocytes
Nc1ncnc2c1ncn2[C@@H]1O[C@H](COP(=O)(O)OP(=O)(O)OP(=O)(O)O)[C@@H](O)[C@H]1O [ATP, adenosine triphosphate] | higher cardiac activity (faster beats with frequencies higher than the baseline frequencies)
Cc1ccc2c(c1)C(=O)C1(O)CCN(c3ccccc3)C1=N2 (centres unmarked) [blebbistatin] | lower cardiac activity (slower beats with frequencies lower than the baseline frequencies)
